From US20070037785A1, “Novel dipeptidyl peptidase IV inhibitors used for functionally influencing different cells and treating immunological, infammatory, neuronal, and other diseases” (priority 2003, published 2007)

target: dipeptidyl peptidase IV (Homo sapiens, UniProt P27487); assay: biochemical; conditions: values marked with "*" are ID50 values; read-out: IC50DPIV, values marked with "*" = ID50
Sequence (P27487 whole entry, species assumed): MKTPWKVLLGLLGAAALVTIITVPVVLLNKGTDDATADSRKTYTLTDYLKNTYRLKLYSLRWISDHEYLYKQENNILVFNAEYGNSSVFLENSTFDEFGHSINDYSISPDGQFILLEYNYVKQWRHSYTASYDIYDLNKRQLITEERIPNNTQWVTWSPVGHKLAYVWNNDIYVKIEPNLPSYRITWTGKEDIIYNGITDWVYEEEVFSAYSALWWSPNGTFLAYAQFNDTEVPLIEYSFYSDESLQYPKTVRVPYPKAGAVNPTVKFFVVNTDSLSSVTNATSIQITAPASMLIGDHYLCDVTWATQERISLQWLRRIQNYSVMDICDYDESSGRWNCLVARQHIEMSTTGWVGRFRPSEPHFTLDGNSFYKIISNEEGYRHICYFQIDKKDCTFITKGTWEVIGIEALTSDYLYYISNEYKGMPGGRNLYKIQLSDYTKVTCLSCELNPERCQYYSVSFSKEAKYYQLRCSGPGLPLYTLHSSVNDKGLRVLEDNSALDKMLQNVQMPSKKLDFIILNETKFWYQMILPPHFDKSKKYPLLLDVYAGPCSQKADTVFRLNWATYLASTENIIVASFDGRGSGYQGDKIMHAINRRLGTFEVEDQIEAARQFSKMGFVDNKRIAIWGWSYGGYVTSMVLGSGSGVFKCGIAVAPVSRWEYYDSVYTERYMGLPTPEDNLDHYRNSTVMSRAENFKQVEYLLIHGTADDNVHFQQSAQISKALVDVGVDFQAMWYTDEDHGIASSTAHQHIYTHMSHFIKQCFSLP

Point of comparison: `COC(=O)c1ccc(/C=N/NC(=O)c2cc(C34CC5CC(CC(C5)C3)C4)n[nH]2)cc1` [D10.129], IC50 243 µM. Against it:
- COc1ccc(/C=C(\NC(=O)c2ccccc2)C(=O)N/N=C/c2ccc(OC)c(COc3ccc(C(=O)OCC(C)C)cc3)c2)cc1 [D10.117] — within 1.5-fold, 166 µM
- CCOc1cccc(/C=N\NC(=O)c2ccco2)c1O [D10.107] — 2.4-fold lower, 103 µM
- O=C1CSCC(=O)N1c1ccc(F)cc1F [D4.100] — within 1.5-fold, 216 µM
- COc1ccc(S(=O)(=O)N(CC(=O)N/N=C/c2ccc(C(C)C)cc2)c2cc(Cl)ccc2OC)cc1OC [D10.139] — 1.8-fold higher, 432 µM
- O=C(CC1(O)OC(c2ccccc2)=CC1=O)c1ccccc1 (centres unmarked) [D6.122] — within 1.5-fold, 252 µM
- O=C(N/N=C/c1cc(Br)cc(Br)c1OC(=O)c1ccccc1)/C(=C/c1cccs1)NC(=O)c1ccccc1 [D10.110] — 2.1-fold lower, 114 µM
- COc1cc(OC)cc(N2C(=O)CSCC2=O)c1 [D4.005] — 64-fold lower, 3.8 µM
- Nc1nonc1-n1nnc(C(=O)N/N=C/c2ccccc2Br)c1-c1ccc([N+](=O)[O-])cc1 [D10.135] — within 1.5-fold, 314 µM
- O=C(CCCCC(=O)N/N=C/c1ccc(OC(=O)c2cc([N+](=O)[O-])cc([N+](=O)[O-])c2)cc1)N/N=C/c1ccc(OC(=O)c2cc([N+](=O)[O-])cc([N+](=O)[O-])c2)cc1 [D10.001] — 240-fold lower, 1 µM
- Cc1ccc(C)c(NCC(=O)N/N=C\c2cc([N+](=O)[O-])ccc2N2CCOCC2)c1 [D10.125] — within 1.5-fold, 233 µM
- CS(=O)(=O)N1CCN(c2ccc([N+](=O)[O-])c(NCc3ccc(Cl)cc3)c2)CC1 [D4.112] — within 1.5-fold, 361 µM
- CCOC(=O)CC(N)c1ccc(OC)cc1 (centres unmarked) [D13.006] — 2.9-fold lower, 83.3 µM
- O=C1c2sc3nnc(-c4ccccc4)c(=O)n3c2C(=O)N1c1ccccc1 [D3.114] — within 1.5-fold, 332 µM
- CCOC(=O)c1c(NC(=O)c2cccc([N+](=O)[O-])c2)sc(C(C)=O)c1C [D6.117] — within 1.5-fold, 215 µM
- CC(=O)Oc1ccc(-n2c(=O)c3ccccc3c3ccccc3c2=O)cc1 [D3.107] — within 1.5-fold, 268 µM
- Cc1ccc(OCC(=O)N/N=C/c2c(Br)cc(Br)c(O)c2Br)c(Br)c1 [D10.106] — 2.4-fold lower, 101 µM
- Cc1ccc(N2C(=O)C3CC(c4ccccc4)=C4C5C=CC(C6C(=O)N(c7ccc(C)cc7C)C(=O)C56)C4C3C2=O)c(C)c1 (centres unmarked) [D3.119] — 2.2-fold higher, 527 µM
- CN(Cc1ccccc1)c1ccc(N2C(=O)CCCC2=O)cc1[N+](=O)[O-] [D4.101] — within 1.5-fold, 231 µM
- Cn1c(=O)c2c(nc(NCC(O)CO)n2Cc2ccccc2Cl)n(C)c1=O (centres unmarked) [D12.040] — 2.9-fold lower, 83.3 µM
- O=C(N/N=C/c1cc(Br)ccc1OC(=O)c1ccc([N+](=O)[O-])cc1)/C(=C\c1ccc2c(c1)OCO2)NC(=O)c1ccccc1 [D3.109] — within 1.5-fold, 272 µM
- CC1=C(C(=O)Nc2ccccc2)C(c2ccccc2Cl)c2c(sc(C(=O)c3ccc(Cl)cc3)c2N)N1 (centres unmarked) [D3.093] — 2.2-fold lower, 112 µM
- Oc1ccc(-c2csc(Nc3ncccn3)n2)cc1O [D4.095] — within 1.5-fold, 163 µM
- COc1cc(/C=N/NC(=O)c2ccccc2[N+](=O)[O-])cc(OC)c1OC [D10.128] — within 1.5-fold, 241 µM
- CCC(O)(CC)C(=O)NNc1ccc(C)cc1C [D14.001] — 200-fold lower, 1.2 µM
- O=C(c1cc(C(=O)N2CCOCC2)cc([N+](=O)[O-])c1)N1CCOCC1 [D5.009] — 23-fold lower, 10.7 µM
- CCC(=O)Oc1cccc(N2C(=O)C3C4C=CC(C3C2=O)C2C(=O)N(c3cccc(OC(=O)CC)c3)C(=O)C42)c1 (centres unmarked) [D4.006] — 58-fold lower, 4.2 µM
- Cc1ccccc1NC(=O)C(=O)N/N=C/c1cccc(Cl)c1 [D2.008] — within 1.5-fold, 275 µM
- N#C/C(=C\c1ccc(N2Cc3ccccc3C2)cc1)C(=O)NCc1ccco1 [D4.118] — 1.9-fold higher, 456 µM

same assay, conditions: values without "*" = IC-50; read-out: IC50DPIV

Point of comparison: `CCOC(=O)c1cn(-c2ccc(N3C(=O)CSCC3=O)cc2)nc1C` [D6.056], IC50 37.4 µM. Against it:
- COc1cc(Br)ccc1OCC(=O)N/N=C/c1cc(O)c(O)c(Br)c1Br [D10.013] — 3.7-fold lower, 10.2 µM
- Cc1ccc(C)n1-c1cccc(C(=O)N/N=C/c2cc(Br)c(O)c(Br)c2)c1 [D10.065] — within 1.5-fold, 41 µM
- CCOP(=O)(CC(=O)N1CCN(C(=O)Nc2cccc(Br)c2)C1C(=O)NCc1cccc(CN)c1)OCC (centres unmarked) [D9.008] — within 1.5-fold, 46.3 µM
- Cc1[nH]c2ccccc2c1/C=N/OC(=O)C1CC1 [D11.008] — within 1.5-fold, 30 µM
- O=C1NCCCCC1Nc1ccc(N2C(=O)CCCC2=O)cc1[N+](=O)[O-] (centres unmarked) [D4.044] — within 1.5-fold, 34.1 µM
- CCOC(=O)c1c(C)oc2c1c1c(c3ccccc32)OCN(C2CCS(=O)(=O)C2)C1 (centres unmarked) [D3.046] — within 1.5-fold, 34.2 µM
- N#Cc1ccc(/C=N/NC(=O)c2cc([N+](=O)[O-])ccc2O)cc1 [D10.098] — 2.2-fold higher, 81.4 µM
- CC(=O)Oc1ccc(-c2ccc(/C=N/NC(=O)C34CC5CC(C3)CC(c3ccc(C)cc3)(C5)C4)cc2)cc1 [D10.052] — within 1.5-fold, 32.9 µM
- CNc1nc2c(c(=O)[nH]c(=O)n2C)n1Cc1ccccc1Cl [D3.091] — within 1.5-fold, 27.8 µM
- Cc1ccccc1N1C(=O)c2sc3nc4c(c(=O)n3c2C1=O)CCC4 [D3.020] — 2.5-fold lower, 15.2 µM
- CCOC(=O)c1n[nH]c2c1C(=O)N(c1ccc([N+](=O)[O-])cc1)C2=O [D2.005] — within 1.5-fold, 54.5 µM
- CC(=O)Oc1cc2oc(=O)cc(C)c2cc1OC(C)=O [D3.078] — 1.6-fold higher, 59.2 µM
- COc1cc(/C=N/NC(=O)/C(=C/c2ccc(N(C)C)cc2)NC(=O)c2ccccc2)cc(Br)c1O [D10.070] — within 1.5-fold, 46.2 µM
- O=C1c2ccccc2-c2c1[n+]([O-])c1c([n+]2[O-])CCCC1 [D3.017] — 2.7-fold lower, 14 µM
- CCCOC(=O)c1cc(-c2ccc(/C=C3\C(=O)NC(=O)C(C#N)=C3C)o2)ccc1Cl [D12.034] — 1.7-fold higher, 65.3 µM
- COc1cc(Br)c(OCC(=O)N/N=C/c2cc(Br)c(O)c(O)c2Br)c(Br)c1 [D10.046] — within 1.5-fold, 29.2 µM
- COC(=O)C1=C2SCC(=O)N2C(N)=C(C#N)C1 [D3.052] — within 1.5-fold, 40.5 µM
- CN(/N=C/c1sc(=O)[nH]c1Cl)c1ccccc1 [D6.049] — within 1.5-fold, 32.4 µM
- O=C(CNc1ccc2ccccc2c1)N/N=C1/C(=O)Nc2ccc([N+](=O)[O-])cc21 [D10.032] — 2.1-fold lower, 18.2 µM
- CC1=C(C#N)C(=O)N(CCO)C(=O)/C1=C\c1ccc(-c2cc(Cl)ccc2Cl)o1 [D6.071] — within 1.5-fold, 51.7 µM
- CCOC(=O)c1n[nH]c2c1CN(c1ccc([N+](=O)[O-])cc1)C2=O [D12.031] — within 1.5-fold, 54.5 µM
- CC(C)C1Cc2c(sc3c2c(=O)n(Cc2ccccc2)c2nnc(SCC(=O)O)n32)CO1 (centres unmarked) [D6.037] — 2-fold lower, 18.9 µM
- O=C(N/N=C/c1cc(Br)c(O)c(Br)c1O)/C(=C\c1ccc2c(c1)OCO2)NC(=O)c1ccccc1 [D10.089] — 1.6-fold higher, 60 µM
- CC1=C(C#N)C(=O)N=C(O)/C1=C\c1ccc(-c2ccc(Cl)cc2Cl)o1 [D4.087] — 2.6-fold higher, 95.8 µM
- CC(C)(C)C(=O)Nc1ccc(C(=O)Nc2nccs2)cc1 [D6.007] — 5-fold lower, 7.5 µM
- O=C(N/N=C/c1ccc(-c2ccc(Cl)cc2)o1)/C(=C/c1ccc([N+](=O)[O-])cc1)NC(=O)c1ccccc1 [D10.026] — 2.3-fold lower, 16.4 µM
- CCC(=O)O/N=C(/C)c1cc2ccccc2oc1=O [D3.060] — within 1.5-fold, 45.9 µM
- O=C(N/N=C/c1ccc([N+](=O)[O-])o1)c1ccccc1I [D10.040] — 1.8-fold lower, 20.9 µM
- CN(C)c1ccc(C2C=C(Nc3ccccc3)C(=O)N2c2ccccc2)cc1 (centres unmarked) [D12.006] — 1.8-fold lower, 20.4 µM
- C/C(=N\NC(=O)/C(=C\c1ccc(F)cc1)NC(=O)c1ccccc1)c1ccccc1O [D10.055] — within 1.5-fold, 33.4 µM
- CCOC(=O)c1c(C)nn(-c2ccc(N3C(=O)CSCC3=O)cc2)c1C [D4.049] — the same, 37.4 µM
- COc1ccc(C(=O)N/N=C/c2cc(O)c(O)c(Br)c2Br)cc1 [D10.086] — 1.5-fold higher, 57.8 µM
- CCCn1c(N2CCN(CC(=O)c3c[nH]c4ccccc34)CC2)nc2c1c(=O)[nH]c(=O)n2C [D6.046] — within 1.5-fold, 30.8 µM
- CCCC(=O)O/N=C(/C)c1cc2ccccc2oc1=O [D11.007] — 2-fold lower, 18.9 µM
- Cc1ccc(C(=O)N/C(=C\c2ccco2)C(C)N2CCOCC2)cc1C (centres unmarked) [D6.067] — within 1.5-fold, 46.5 µM
- NS(=O)(=O)c1ccc(N2C(=O)CCCC2=O)cc1 [D4.030] — 1.8-fold lower, 21 µM
- CCOc1cc(/C=N/NC(=O)COc2ccc(Cl)cc2)ccc1OC(=O)c1ccc(Br)cc1 [D10.035] — 1.9-fold lower, 20 µM
- COc1cc2c(cc1OC)CC(C)(C)NC2 [D3.005] — 6.2-fold lower, 6 µM
- Cc1cc(Nc2ccc(N3C(=O)CCCC3=O)cc2[N+](=O)[O-])no1 [D4.025] — 1.9-fold lower, 20 µM
- Nc1nonc1-n1nnc(C(=O)NN=C2c3ccccc3-c3ccccc32)c1-c1ccccc1 [D10.012] — 3.7-fold lower, 10 µM
- COc1cc(/C=N/NC(=O)COc2ccc(C(C)(C)CC(C)(C)C)cc2)cc([N+](=O)[O-])c1O [D10.033] — 2-fold lower, 18.9 µM
- CCC(N)C(=O)c1cccs1 (centres unmarked) [D6.085] — 1.6-fold higher, 61.4 µM
- O=C(N/N=C/c1cc([N+](=O)[O-])cc([N+](=O)[O-])c1O)/C(=C/c1ccc([N+](=O)[O-])cc1)NC(=O)c1ccccc1 [D10.069] — within 1.5-fold, 45.7 µM
- Brc1cccc(/C=N/Nc2nnc3c(n2)[nH]c2ccccc23)c1 [D3.015] — 3.1-fold lower, 12.2 µM
- O=C(N/N=C/c1cc(I)cc(I)c1O)c1ccc(NC(=O)c2ccccc2)cc1 [D10.062] — within 1.5-fold, 39.7 µM
- O=C(CNC(=O)C(c1ccccc1)c1ccccc1)N/N=C/c1ccc(OC(=O)c2cccc(F)c2)cc1 [D10.103] — 2.5-fold higher, 93.3 µM
- CC1C(=O)N(Cc2ccccc2)C(=O)c2c1nc(N1CCNCC1)n2Cc1ccccc1 (centres unmarked) [D6.069] — within 1.5-fold, 48.3 µM
- CSc1nc2sc3c(c2c(=O)n1-c1cccc(C)c1)CC(C)(C)OC3 [D3.088] — 2.2-fold higher, 80.6 µM
- CCN(CC)C(=O)C1CCCN(c2ccc([N+](=O)[O-])cc2/C=N/NC(=O)c2cccc([N+](=O)[O-])c2)C1 (centres unmarked) [D5.036] — within 1.5-fold, 54 µM
- O=C(N/N=C/c1ccc([N+](=O)[O-])c(O)c1)/C(=C\c1cccs1)NC(=O)c1ccccc1 [D10.004] — 5.8-fold lower, 6.5 µM
- Cc1ccc(C(=O)N/C(=C\c2ccco2)C(=O)N2CCOCC2)cc1C [D12.025] — within 1.5-fold, 46.5 µM
- O=C(N/N=C/c1cc(Br)c(O)c(Br)c1O)/C(=C\c1ccc2c(c1)OCO2)NC(=O)c1ccccc1 [D3.081] — 1.6-fold higher, 60 µM
- Cc1ccc(OCC(=O)N/N=C\c2ccc(O)c([N+](=O)[O-])c2)c([N+](=O)[O-])c1 [D10.030] — 2.1-fold lower, 17.8 µM
- COc1ccc(/C=N/n2c(N(C(C)=O)C(C)=O)nc(-c3ccccc3)c2-c2ccccc2)cc1 [D4.034] — 1.5-fold lower, 24.3 µM
- O=C(Cn1nnc(-c2ccc(F)cc2)n1)N/N=C/c1ccc(-c2ccc3c(c2)COC3=O)o1 [D10.036] — 1.8-fold lower, 20.3 µM
- O=C(Nc1ccc(O)c(-c2nc3ccccc3s2)c1)c1ccc([N+](=O)[O-])o1 [D3.018] — 2.6-fold lower, 14.4 µM
